Reference: patent US20050244328A1 (priority 2002, published 2005)
Several values for one entry are separate records, joined by “and”; a condition that tells them apart may be missing. Identical values can stand only once. Like-named read-outs stand apart in the source and are kept apart here.

Key:
[1] = tested on: Silversides; experiment: In-house silverside bioassay of ClO2 treated effluent; assay type: in vivo, Menidia beryllina; conditions: numerous in-house tests, WWTP 1
[2] = tested on: Mysid shrimp; experiment: In-house mysid shrimp acute bioassay of treated effluent; conditions: for surviving Mysid shrimp DAY 1 (bowls A, B) / surviving Mysid shrimp DAY 2 (bowls A, B) / surviving Mysid shrimp DAY 3 (bowls A, B) / surviving Mysid shrimp DAY 4 (bowls A, B): 10 initial per bowl, set up Aug. 20, 2002
[3] = tested on: Pediococcus Damnosus; conditions: cited from earlier work
[4] = tested on: Saccharomyces diastaticus (yeast); conditions: cited from earlier work
[5] = tested on: Fecal Coliform; experiment: Fecal coliform counts in effluent, full-scale pilot and baseline at WWTP 2
[6] = tested on: M. beryllina; experiment: Bioassay of ClO2 treated WWTP 2 effluent by Laboratory 4, silverside minnow; assay type: in vivo, Menidia beryllina; conditions: for Sample survival % of M. berylina: grabs Sep. 11, 2002 10:00, 15:30, 22:00, Sep. 12, 2002 10:00
From the text: With the success of the above bioassay series that began on Aug. 20, 2002, it was concluded that a third party test was needed to verify research data. Water grabs from the Anastasia Island Treatment Facility, taken on Aug. 28, 2002, were delivered to Laboratory 4, an independent bioassay laboratory. Additional testing of the water sent to Laboratory 4 labs was also forwarded to another contract lab to document the water quality during the sample periods for the bioassays. It should be noted here that the plant was operating under their normal operating conditions and accepting both landfill leachate as well as septic tank and portable toilet waste. These were however pumped into a storage tank and then trickled into the influent stream at the headworks.
The complete toxicological study as reference is included as attachment at the end of this study.
With the successful bioassay conducted by the Laboratory 4 labs, a second series of water samples was taken for the repeat bioassay. These samples were taken on Sep. 11, 2002 and forwarded to Laboratory 4 labs on Sep. 12, 2002 to conduct the bioassay. The results of this test for both the water quality toxicity and the bioassay are illustrated in the Tables 13, 14 and 15.
The complete toxicological results are provided at the end of this study as attachments.

[7] = tested on: Eschericia Coli; conditions: cited from earlier work
[8] = tested on: Fecal Coliform; experiment: Fecal coliform kill in ClO2-dosed post clarifier effluent, side stream pilot at WWTP 1 (Membrane Filter SM 9222D)
[9] = tested on: Pseudomonas aeruginosa; conditions: 1 ppm of ClO2; contact time 60 s; cited from earlier work
[10] = tested on: Pectinatus cervisiiphilus; conditions: 0.1 ppm of ClO2; contact time 5 min; cited from earlier work

Substance: Chlorine dioxide [ClO2]
- survival of Silversides post CLO2 dosing [1]: always survived
- survival rate of Mysid Shrimp 24 HR ([2]; 0.64 PPM DOSE, 25% solution): 100
- survival rate of Mysid Shrimp 48 HR ([2]; 0.64 PPM DOSE, 25% solution): 100
- survival rate of Mysid Shrimp 72 HR ([2]; 0.64 PPM DOSE, 25% solution): 90
- survival rate of Mysid Shrimp 96 HR ([2]; 0.64 PPM DOSE, 25% solution): 90
- surviving Mysid shrimp DAY 1 (bowls A, B) ([2]; 0.64 PPM DOSE, 25% solution): 10
- surviving Mysid shrimp DAY 2 (bowls A, B) ([2]; 0.64 PPM DOSE, 25% solution): 10
- surviving Mysid shrimp DAY 3 (bowls A, B) ([2]; 0.64 PPM DOSE, 25% solution): 9
- surviving Mysid shrimp DAY 4 (bowls A, B) ([2]; 0.64 PPM DOSE, 25% solution): 9
- survival rate of Mysid Shrimp 24 HR ([2]; 0.64 PPM DOSE, 50% solution): 100
- survival rate of Mysid Shrimp 48 HR ([2]; 0.64 PPM DOSE, 50% solution): 100
- survival rate of Mysid Shrimp 72 HR ([2]; 0.64 PPM DOSE, 50% solution): 100
- survival rate of Mysid Shrimp 96 HR ([2]; 0.64 PPM DOSE, 50% solution): 100
- surviving Mysid shrimp DAY 1 (bowls A, B) ([2]; 0.64 PPM DOSE, 50% solution): 10
- surviving Mysid shrimp DAY 2 (bowls A, B) ([2]; 0.64 PPM DOSE, 50% solution): 10
- surviving Mysid shrimp DAY 3 (bowls A, B) ([2]; 0.64 PPM DOSE, 50% solution): 10
- surviving Mysid shrimp DAY 4 (bowls A, B) ([2]; 0.64 PPM DOSE, 50% solution): 10
- survival rate of Mysid Shrimp 24 HR ([2]; 0.64 PPM DOSE, 75% solution): 100
- survival rate of Mysid Shrimp 48 HR ([2]; 0.64 PPM DOSE, 75% solution): 100
- survival rate of Mysid Shrimp 72 HR ([2]; 0.64 PPM DOSE, 75% solution): 95
- survival rate of Mysid Shrimp 96 HR ([2]; 0.64 PPM DOSE, 75% solution): 90
- surviving Mysid shrimp DAY 1 (bowls A, B) ([2]; 0.64 PPM DOSE, 75% solution): 10
- surviving Mysid shrimp DAY 2 (bowls A, B) ([2]; 0.64 PPM DOSE, 75% solution): 10
- surviving Mysid shrimp DAY 3 (bowls A, B) ([2]; 0.64 PPM DOSE, 75% solution): 9 and 10
- surviving Mysid shrimp DAY 4 (bowls A, B) ([2]; 0.64 PPM DOSE, 75% solution): 8 and 10
- survival rate of Mysid Shrimp 24 HR ([2]; 0.64 PPM DOSE, 100% solution): 100
- survival rate of Mysid Shrimp 48 HR ([2]; 0.64 PPM DOSE, 100% solution): 100
- survival rate of Mysid Shrimp 72 HR ([2]; 0.64 PPM DOSE, 100% solution): 85
- survival rate of Mysid Shrimp 96 HR ([2]; 0.64 PPM DOSE, 100% solution): 70
- surviving Mysid shrimp DAY 1 (bowls A, B) ([2]; 0.64 PPM DOSE, 100% solution): 10
- surviving Mysid shrimp DAY 2 (bowls A, B) ([2]; 0.64 PPM DOSE, 100% solution): 10
- surviving Mysid shrimp DAY 3 (bowls A, B) ([2]; 0.64 PPM DOSE, 100% solution): 7 and 10
- surviving Mysid shrimp DAY 4 (bowls A, B) ([2]; 0.64 PPM DOSE, 100% solution): 5 and 9
- survival rate of Mysid Shrimp 24 HR ([2]; 1.05 PPM DOSE, 25% solution): 100
- survival rate of Mysid Shrimp 48 HR ([2]; 1.05 PPM DOSE, 25% solution): 100
- survival rate of Mysid Shrimp 72 HR ([2]; 1.05 PPM DOSE, 25% solution): 100
- survival rate of Mysid Shrimp 96 HR ([2]; 1.05 PPM DOSE, 25% solution): 100
- surviving Mysid shrimp DAY 1 (bowls A, B) ([2]; 1.05 PPM DOSE, 25% solution): 10
- surviving Mysid shrimp DAY 2 (bowls A, B) ([2]; 1.05 PPM DOSE, 25% solution): 10
- surviving Mysid shrimp DAY 3 (bowls A, B) ([2]; 1.05 PPM DOSE, 25% solution): 10
- surviving Mysid shrimp DAY 4 (bowls A, B) ([2]; 1.05 PPM DOSE, 25% solution): 10
- survival rate of Mysid Shrimp 24 HR ([2]; 1.05 PPM DOSE, 50% solution): 100
- survival rate of Mysid Shrimp 48 HR ([2]; 1.05 PPM DOSE, 50% solution): 100
- survival rate of Mysid Shrimp 72 HR ([2]; 1.05 PPM DOSE, 50% solution): 95
- survival rate of Mysid Shrimp 96 HR ([2]; 1.05 PPM DOSE, 50% solution): 95
- surviving Mysid shrimp DAY 1 (bowls A, B) ([2]; 1.05 PPM DOSE, 50% solution): 10
- surviving Mysid shrimp DAY 2 (bowls A, B) ([2]; 1.05 PPM DOSE, 50% solution): 10
- surviving Mysid shrimp DAY 3 (bowls A, B) ([2]; 1.05 PPM DOSE, 50% solution): 10 and 9
- surviving Mysid shrimp DAY 4 (bowls A, B) ([2]; 1.05 PPM DOSE, 50% solution): 9 and 10
- survival rate of Mysid Shrimp 24 HR ([2]; 1.05 PPM DOSE, 75% solution): 100
- survival rate of Mysid Shrimp 48 HR ([2]; 1.05 PPM DOSE, 75% solution): 100
- survival rate of Mysid Shrimp 72 HR ([2]; 1.05 PPM DOSE, 75% solution): 100
- survival rate of Mysid Shrimp 96 HR ([2]; 1.05 PPM DOSE, 75% solution): 95
- surviving Mysid shrimp DAY 1 (bowls A, B) ([2]; 1.05 PPM DOSE, 75% solution): 10
- surviving Mysid shrimp DAY 2 (bowls A, B) ([2]; 1.05 PPM DOSE, 75% solution): 10
- surviving Mysid shrimp DAY 3 (bowls A, B) ([2]; 1.05 PPM DOSE, 75% solution): 10
- surviving Mysid shrimp DAY 4 (bowls A, B) ([2]; 1.05 PPM DOSE, 75% solution): 10 and 9
- survival rate of Mysid Shrimp 24 HR ([2]; 1.05 PPM DOSE, 100% solution): 100
- survival rate of Mysid Shrimp 48 HR ([2]; 1.05 PPM DOSE, 100% solution): 100
- survival rate of Mysid Shrimp 72 HR ([2]; 1.05 PPM DOSE, 100% solution): 90
- survival rate of Mysid Shrimp 96 HR ([2]; 1.05 PPM DOSE, 100% solution): 70
- surviving Mysid shrimp DAY 1 (bowls A, B) ([2]; 1.05 PPM DOSE, 100% solution): 10
- surviving Mysid shrimp DAY 2 (bowls A, B) ([2]; 1.05 PPM DOSE, 100% solution): 10 and 9
- surviving Mysid shrimp DAY 3 (bowls A, B) ([2]; 1.05 PPM DOSE, 100% solution): 8 and 10
- surviving Mysid shrimp DAY 4 (bowls A, B) ([2]; 1.05 PPM DOSE, 100% solution): 6 and 8
- No. of surviving shrimp DAY 2 ([2]; 100% effluent, 10 shrimp per bowl, set up Aug. 13, 2002, ClO2 samples 14:00 and 15:00, bowls A, B, landfill leachate slug in plant): 10 and 9 and 6
- AVG (% survival of bowls A and B) ([2]; 100% effluent, set up Aug. 13, 2002, ClO2 samples 14:00 and 15:00): 40%
- mysid shrimp bioassay outcome ([2]; side stream, after adjustments to the chlorine dioxide generator (weaker hypochlorite solution)): successful (acceptable end-point survival)
- Inactivation in % ([3]; 0.15 ppm of ClO2, contact time 20 min): 99.99%
- Inactivation in % ([3]; 0.3 ppm of ClO2, contact time 5 min): 99.99%
- Inactivation in % ([3]; 1 ppm of ClO2, contact time 5 min): 99.999%
- Inactivation in % ([4]; 0.15 ppm of ClO2, contact time 10 min): 99.9%
- Inactivation in % ([4]; 0.5 ppm of ClO2, contact time 10 min): >99.999%
- Inactivation in % ([4]; 1 ppm of ClO2, contact time 1 min): >99.999%
- FECAL ([5]; 13:00, 1.2 PPM DOSE RATE, sample point 1, 19 Aug. 2002): 6
- FC (fecal) ([5]; 15:00, 0.91 PPM DOSE, sample point 4, 19 Aug. 2002): 15
- FECAL ([5]; 15:45, 1.05 PPM DOSE RATE, sample point 4, 19 Aug. 2002): 26
- FECAL ([5]; WWTP 2 effluent 28-Aug, CL2SO2 at 8:30, CLO2 at 10:15): 45
- Sample survival % of M. berylina ([6]; 6.25 % Effluent): 100%
- Sample survival % of M. berylina ([6]; 12.5 % Effluent): 100%
- Sample survival % of M. berylina ([6]; 25 % Effluent): 100% and 95%
- Sample survival % of M. berylina ([6]; 50 % Effluent): 95% and 100%
- Sample survival % of M. berylina ([6]; 100 % Effluent): 95% and 100%
- M. beryllina % survival ([6]; ClO2 treated effluent grabs Aug. 28, 2002 10:15, 16:00, 22:00, Aug. 29, 2002 09:30): 100%
- Inactivation in % ([7]; 0.15 ppm of ClO2, contact time 300 s): 99.9%
- Inactivation in % ([7]; 0.25 ppm of ClO2, contact time 60 s): >99.999%
- Fecal Coliform ([8]; 1.8 ppm, 5 min contact, pH 7.20, Feb. 6, 2001): <1 #cfu/100 mls
- Fecal Coliform ([8]; 1.8 ppm, 5 min contact, pH 7.20, Feb. 7, 2001): <1 #cfu/100 mls
- Fecal Coliform ([8]; 2.23 ppm, 5 min contact, pH 7.20, Feb. 6, 2001): <1 #cfu/100 mls
- Fecal Coliform ([8]; 2.23 ppm, 5 min contact, pH 7.20, Feb. 7, 2001): <1 #cfu/100 mls
- Fecal Coliform ([8]; 3.0 ppm, 5 min contact, pH 7.20, Feb. 6, 2001): <1 #cfu/100 mls
- Fecal Coliform ([8]; 3.0 ppm, 5 min contact, pH 7.20, Feb. 7, 2001): <1 #cfu/100 mls
- Fecal Coliform ([8]; 3.97 ppm, 5 min contact, pH 7.20, Feb. 6, 2001): <1 #cfu/100 mls
- Fecal Coliform ([8]; 3.97 ppm, 5 min contact, pH 7.20, Feb. 7, 2001): <1 #cfu/100 mls
- Fecal Coliform ([8]; 5% chlorite solution, ClO2 dose rate 3.0 mg/ltr, 5 minute contact, Jan. 24, 2001): <1 #cfu/100 mls
- Fecal Coliform ([8]; 5.0 ppm, 5 min contact, pH 7.20, Feb. 6, 2001): <1 #cfu/100 mls
- Fecal Coliform ([8]; 5.0 ppm, 5 min contact, pH 7.20, Feb. 7, 2001): <1 #cfu/100 mls
- Fecal Coliform ([8]; Injector 1.8 ppm, 5 min contact, pH 7.30, Feb. 5, 2001): <1 #cfu/100 mls
- Fecal Coliform ([8]; Injector 2.23 ppm, 5 min contact, pH 7.30, Feb. 5, 2001): <1 #cfu/100 mls
- Fecal Coliform ([8]; Injector 3.0 ppm, 5 min contact, pH 7.30, Feb. 5, 2001): <1 #cfu/100 mls
- Fecal Coliform ([8]; Injector 3.97 ppm, 5 min contact, pH 7.30, Feb. 5, 2001): <1 #cfu/100 mls
- Fecal Coliform ([8]; Injector 5.0 ppm, 5 min contact, pH 7.30, Feb. 5, 2001, (*) bits of algae in samples): 1 (*) #cfu/100 mls and <1 #cfu/100 mls
- dosing rate at which fecal coliform kills were also achieved (as low as) ([8]; further testing): 0.075 ppm
- fecal coliform kill ([8]; lower dosing rate of 1.8 ppm): effectively killed
- time required for a complete fecal kill ([8]; lower dosing rates): more than 2 minutes
- Inactivation in % [9]: >99.999%
- Inactivation in % [10]: 99.9%
